# Test results as given in patent US8815900B2, “Compounds and compositions for reducing lipid levels” (CVI Pharmaceuticals Limited, priority 2007, dated 2014).
# Structures can show the parent of a compound that is named as a salt.
# Experiments:
# [1] = system: LDLR mRNA expression in HepG2 cells; assay: LDLR mRNA expression in HepG2 cells, quantitative real-time RT-PCR; assay type: cell-based, Human; settings: 24 hours; for Activity on LDLR mRNA expression (Fold of control): dose less than or equal to 10 μM
# Method: In yet another experiment, HepG2 cells were treated with various compounds for 24 hours at the indicated doses. Total RNA was isolated and 2 μg was used to generate cDNA in a reaction containing random primers and M-MLV at 37° C. for 1 hour in a volume of […] Real-time PCR was performed on the cDNA using MCEP REALPLEX 2 SYSTEM (Eppendorf) and Universal MasterMix (Applied Biosystems). Human LDLR and GAPDH Pre-Developed TaqMan Assay Reagents (Applied Biosystems) were used to assess the levels of mRNA expressions in HepG2. The levels of LDLR mRNA were normalized to that of GAPDH. Each RNA samples was assayed in triplicate. The abundance of LDLR mRNA in untreated cells was defined as 1, and the amounts of LDLR mRNA from compound-treated cells were plotted relative to that value in FIG. 13. The data shown are mean±s.d.
# Activities of some compounds of Formulas I, II, III, and IV on LDLR mRNA expression were determined. HepG2 cells were treated with new compounds individually at a dose less than or equal to 10 μM for 24 hours. Total RNA was harvested for quantitative real-time RT-PCR analysis using the method described in Example 16B. […] In these experiments, berberine chloride was included for comparison.
# Quantitative real-time RT-PCR was conducted, and triplicate was assayed in each RNA sample. The data are mean value of triplicates.
# Total RNA was harvested for quantitative real-time RT-PCR analysis using method described in Examples 16B.
# [2] = system: Wister male rats under a high fat and high cholesterol diet; assay: Lipid lowering and body weight effects of (14R,13S)-CRDL hydrochloride salt in Wister rats; assay type: in vivo
# Method: Male Wister rats were used as another animal model to examine the in vivo effects of (14R,13S)-CRDL in plasma lipid levels.
# In one experiment, 18 Wister male rats under a high fat and high cholesterol diet were divided into 2 groups. One group was given (14R,13S)-CRDL hydrochloride salt orally at a daily dose of 75 mg/kg by an orogastric tube for 4 weeks, and the control group received daily treatment of equal amount of vehicle (0.1 M sodium phosphate, pH 3.5). Serum lipid levels were measured weekly.
# At the end of treatment, Rats were sacrificed and blood and sera were collected to measure several critical parameters for liver function and kidney function. […] Kidney function and blood glucose level were not changed by the treatment (FIG. 11E).
# The food intake and body weight gains were measured every week during the 4-week treatment period. […] In the first week, the amount of food consumed was decreased in CRDL-treated group. […] The ability of CRDL to activate AMPK signaling pathway to increase energy expenditure and to reduce fat accumulation likely contributes to this weight reducing effect.
# [3] = system: LDLR ligand uptake activity in HepG2 cells; assay: DiI-LDL uptake (LDLR ligand uptake activity) in HepG2 cells; assay type: cell-based, Human; settings: 20 hours; also: key: +: slightly increased fluorescent intensity over control; ++: modestly increased fluorescent intensity over control; +++: strongly increased fluorescent intensity over control
# Method: HepG2 cells (2×10^5 cells/well) in 24-well culture plates were treated with various compounds at indicated concentrations for 20 hours. The fluorescent 1,1′-dioctadecyl-3,3,3′,3′-tetramethylindocarbocyanin perchlorate (DiI-LDL) (Biomedical Technologies, Stoughton, Mass.) at a concentration of 2 μg/mL was added to cells at the end of treatment. After 4 hours, the medium was removed, cells were washed with cold PBS, and were examined immediately under a fluorescent microscope (Nikon) at 200× amplification. The fluorescent intensity in compound-treated cells was compared to that in untreated control cells. […] In these experiments berberine chloride was used for comparison.
# [4] = system: LDLR mRNA expression in HepG2 cells; assay: LDLR mRNA expression in HepG2 cells, semi-quantitative RT-PCR; assay type: cell-based, Human; settings: 8 hours, indicated doses, corrected by GAPDH mRNA (FIG. 3)
# Method: HepG2 cells obtained from American Tissue Culture Collection (Manassas, Va., USA) were seeded in 6-well culture plates at a density of 0.8×10^6 cells/well cultured in EMEM containing 0.5% FBS and were treated with each purified compound at indicated doses for 8 hours. Total RNA was isolated, and 2 μg per sample was reverse transcribed with random primers using M-MLV (Promega) at 37° C. for 1 hour. PCR was carried out at 94° C. for 30 sec, 60° C. for 30 sec, and 72° C. for 30 sec with initial activation of the enzyme at 94° C. for 1 minute. Thirty cycles were performed for LDLR and GAPDH. PCR was performed using primers HLDLR-up and HLDLR-lo for LDLR and primers HGAPDH-up and HGAPDH-lo for GAPDH. The PCR products were separated on a 1% agarose gel and the band intensity was quantitated. LDLR mRNA levels were corrected by measuring GAPDH mRNA levels.
# After the treatment, a portion of cells was harvested for total RNA, and another portion of cells was used for TG measurement. The LDLR mRNA levels were assessed by semi quantitative RT-PCR, and the cellular TG content was determined as described above.
# [5] = system: hypercholesterolemic hamsters; assay: In vivo lipid lowering of (14R)-THP in hamsters on high cholesterol diet; set-up: species or system Golden Syrian male hamsters; settings: 12 mg/kg daily i.p., 34 days
# Excerpt: To determine whether the induction of hepatic LDLR expression by corydalis-derived compounds would result in total cholesterol (TC) and LDL-cholesterol (LDL-c) reductions in plasma, hypercholesterolemic hamsters were used as an animal model. In one experiment, 10 Golden Syrian male hamsters under a high cholesterol (HC) diet were divided into 2 groups.
# [6] = Stability of compound 69 under cell culture conditions (LC-MS of medium); assay type: in vitro ADME; settings: HepG2 culture medium, 20 μM
# Method: HepG2 cells were cultured in 6-well cell culture plate in EMEM containing 0.5% FBS overnight. Compound 69+ was added to the culture medium to a final concentration of 20 μM. Medium was collected at 0 (control), 4, 8, or 24 hours after the compound addition.
# The collected media were analyzed by LC-MS on a Thermo Fisher Scientific Surveyor HPLC system and LCQ ion trap MS with electrospray ionization source. A 50×2.1 mm Hypersil Gold C18 3 um column was used with a flow rate of 200 uL/min. The method conditions were 98% A (0.1% formic acid in water)/2% B (0.1% formic acid in acetonitrile) then a gradient to 95% B in 10 minutes. The injection volume was 10 uL.
# [7] = (14R,13S)-CRDL hydrochloride salt orally 75 mg/kg daily, 4 weeks
# [8] = end of 4-week treatment, 75 mg/kg daily orally
# [9] = HC diet, compared to untreated control group
compound,measurement,setting,value
"CCOC(=O)Oc1c(OC)ccc2c1CN1CCc3cc4c(cc3C1C2)OCO4 (stereo not shown) [Compound 48, 10-methoxy-5,6,7,8,13,13a-hexahydro-2H-1,3-dioxolano[4,5-g]isoquinolino[3,2-a]isoquinolin-9-yl ethoxyformate]",Activity on LDLR mRNA expression (Fold of control),[1],1.45 ± 0.15 Fold of control
"COc1ccc2c(c1OC(=O)Nc1ccccc1)CN1CCc3cc4c(cc3C1C2)OCO4 (stereo not shown) [Compound 61, (10-methoxy (5,6,7,8,13,13a-hexahydro-2H-1,3-dioxolano[4,5-g]isoquinolino[3,2-a]isoquinolin-9-yloxy))-N-benzamide]",Activity on LDLR mRNA expression (Fold of control),[1],1.33 ± 0.53 Fold of control
"COc1cc2c(cc1OC)[C@H]1[C@@H](C)c3ccc(OC)c(OC)c3CN1CC2 [Compound 6, (13S,13aR)-2,3,9,10-tetramethoxy-13-methyl-5,6,7,8,13,13a-hexahydroiso-quinolino[2,1-b]isoquinoline hydrochloride]","LDL-c level, % of control",[2]; [7],25.6%
same,"LDL-c level, % of day 0",[2]; [7],22.4%
same,"TC, % compared to the control group",[2]; [7],33.8%
same,"TC, % of the pretreatment level",[2]; [7],33.0%
same,"TG level, % of the control",[2]; [7],29%
same,"TG level, % of the pretreatment level (day 0)",[2]; [7],27%
same,blood glucose level,[2]; [8],not changed
same,"kidney function (BUN, CREA)",[2]; [8],not changed
"COc1ccc2c(c1OC(=O)N(C)C)CN1CCc3cc4c(cc3C1C2)OCO4 (stereo not shown) [Compound 43, (10-methoxy (5,6,7,8,13,13a-hexahydro-2H-1,3-dioxolano[4,5-g]isoquinolino[3,2-a]isoquinolin-9-yloxy))-N,N-dimethylcarboxamide]",Activity on LDLR mRNA expression (Fold of control),[1],1.95 ± 0.18 Fold of control
same,Activity on DiI-LDL uptake,"[3]; A, compound dose ≦ 10 μM",++
"COc1ccc2c(c1OC(=O)Nc1ccc(OC(F)(F)F)cc1)CN1CCc3cc4c(cc3C1C2)OCO4 (stereo not shown) [Compound 44, (10-methoxy (5,6,7,8,13,13a-hexahydro-2H-1,3-dioxolano[4,5-g]isoquinolino[3,2-a]isoquinolin-9-yloxy))-N-[4-(trifluoromethoxy)phenyl]car-boxamide]",Activity on LDLR mRNA expression (Fold of control),[1],2.20 ± 0.06 Fold of control
same,Activity on DiI-LDL uptake,"[3]; A, compound dose ≦ 10 μM",++
"COc1ccc2c(c1OC(=O)Nc1cccc(C)c1)CN1CCc3cc4c(cc3C1C2)OCO4 (stereo not shown) [Compound 46, (10-methoxy (5,6,7,8,13,13a-hexahydro-2H-1,3-dioxolano[4,5-g]isoquinolino[3,2-a]isoquinolin-9-yloxy))-N-(3-methylphenyl) carboxamide]",Activity on LDLR mRNA expression (Fold of control),[1],1.80 ± 0.16 Fold of control
same,Activity on DiI-LDL uptake,"[3]; A, compound dose ≦ 10 μM",++
"COc1cc2c(cc1O)CCN1Cc3c(ccc(OC)c3OC)CC21 (stereo not drawn) [14R-(+)-CRPM, 14R-(+)-corypalmine]",Activity on DiI-LDL uptake,"[3]; A, compound dose ≦ 10 μM",++
same,LDLR mRNA expression,[4],potent and dose-dependent effects
"CN1CCc2cc3c(cc2[C@H]1[C@@H]1O[C@H](O)c2c1ccc1c2OCO1)OCO3 [d-(+)-EGN, (+)-egenine]",Activity on DiI-LDL uptake,"[3]; A, compound dose ≦ 10 μM",+
"COc1ccc2c(c1OC(=O)NC(C)C)CN1CCc3cc4c(cc3C1C2)OCO4 (stereo not shown) [Compound 41, (10-methoxy (5,6,7,8,13,13a-hexahydro-2H-1,3-dioxolano[4,5-g]isoquinolino[3,2-a]isoquinolin-9-yloxy))-N-(methylethyl) carboxamide]",Activity on LDLR mRNA expression (Fold of control),[1],1.60 ± 0.03 Fold of control
same,Activity on DiI-LDL uptake,"[3]; A, compound dose ≦ 10 μM",++
"COc1cc(NC(=O)Oc2c(OC)ccc3c2CN2CCc4cc5c(cc4C2C3)OCO5)cc(OC)c1 (stereo not shown) [Compound 45, N-(3,5-dimethoxyphenyl) (10-methoxy (5,6,7,8,13,13a-hexahydro-2H-1,3-dioxolano[4,5-g]isoquinolino[3,2-a]isoquinolin-9-yloxy)) carboxamide]",Activity on LDLR mRNA expression (Fold of control),[1],2.09 ± 0.11 Fold of control
same,Activity on DiI-LDL uptake,"[3]; A, compound dose ≦ 10 μM",++
"COc1ccc2c(c1O)CN1CCc3cc4c(cc3C1C2)OCO4 (stereo not shown) [Compound 34, 10-methoxy-5,6,7,8,13,13a-hexahydro-2H-1,3-dioxolano[4,5-g]isoquinolino[3,2-a]isoquinolin-9-ol]",Activity on LDLR mRNA expression (Fold of control),[1],1.76 ± 0.17 Fold of control
same,Activity on DiI-LDL uptake,"[3]; A, compound dose ≦ 10 μM",++
(+)-corlumidin [(+)-CLMD],Activity on DiI-LDL uptake,"[3]; B, compound dose ≦ 40 μM",+
same,LDLR mRNA expression,[4],potent and dose-dependent effects
"COc1cc2c(cc1OC)[C@H]1Cc3ccc(OC)c(OC)c3CN1CC2 [14R-(+)-THP, 14R-(+)-tetrahydropalmatine]","LDLR mRNA expression, combined with statins",[1]; added to low dose simvastatin or fluvastatin (FIG. 17),further improved the stimulatory effects of statins
same,Activity on DiI-LDL uptake,"[3]; B, compound dose ≦ 40 μM",++
same,LDLR mRNA expression,[4],potent and dose-dependent effects
same,adverse effects during the treatment period,[5],No adverse effects were observed
same,reduction of plasma TC,[5]; [9],31.6%
same,reduction of plasma TG,[5]; [9],35.93%
same,reduction of plasma non-HDL-c,[5]; [9],35.95%
same,gains of body weight during the treatment period,[5]; vs control group,very similar
"COc1ccc2c(c1OS(=O)(=O)c1ccccc1)CN1CCc3cc4c(cc3C1C2)OCO4 (stereo not shown) [Compound 69, 9-benzene-sulfonyloxy-10-methoxy-5,8,13,13a-tetrahydro-6H-[1,3]dioxolo[4,5-g]isoquino[3,2-a] isoquinoline]",stability under cell culture conditions,[6]; up to 24 hours,fairly stable
same,Peak Area m/z 466.1,[6]; 0 hours (control),2.38e8
same,Peak Area m/z 466.1,[6]; 4 hours,9.67e7
same,Peak Area m/z 466.1,[6]; 8 hours,9.22e7
same,Peak Area m/z 466.1,[6]; 24 hours,7.03e7
